Test results: paper PMC11345774, “Discovery of Novel, Selective, and Nonbasic Agonists for the Kappa-Opioid Receptor Determined by Salvinorin A-Based Virtual Screening” (Journal of Medicinal Chemistry, 2024)
Like-named read-outs stand apart in the source and are kept apart here.

Tests used:
[1] = target: T1, human DOR (Homo sapiens, UniProt P41143); experiment: Radioligand competitive binding assay with [3H]DPDPE, membranes from CHO-hDOR cells; details: compound at 10 μM
T1 construct: expressed in transfected cells; host or cells: CHO cells (CHO-hDOR), gift of Lawrence Toll, SRI International

[2] = target: T2, human MOR (Homo sapiens, UniProt P35372); assay type: binding
T2 construct: expressed in transfected cells; host or cells: CHO cells (CHO-hMOR), gift of Lawrence Toll, SRI International

[3] = target: T3, human KOR (Homo sapiens, UniProt P41145); experiment: PathHunter β-arrestin2 recruitment assay, U2OS-hKOR-β-arrestin2 cells; assay type: cell-based; details: for EC50: U2OS cells coexpressing hKOR and β-arrestin2, tested up to 10 μM, read-out: β-arrestin2 recruitment EC50 (dash symbol)
[4] = target: T3, human KOR; experiment: Radioligand competitive binding assay with [3H]U69,593, membranes from CHO-hKOR cells; details: for inhibition at 10 µM: read-out: inhibition of [3H]U69,593 binding at the KOR; for Ki: read-out: binding affinity Ki
[5] = target: T3, human KOR; experiment: [35S]GTPγS binding assay, antagonist study: inhibition of U69,593-induced stimulation, CHO-hKOR membranes; assay type: biochemical; details: U69,593 1 μM; read-out: inhibition of U69,593-induced stimulation of [35S]GTPγS binding, Inhibition
[6] = target: T3, human KOR; experiment: as above; assay type: biochemical; details: U69,593 1 μM
[7] = target: T3, human KOR; experiment: [35S]GTPγS binding assay (G protein activation), CHO-hKOR cell membranes; assay type: biochemical; details: for Emax: read-out: G protein activation Emax
[8] = system: KOR; details: cited from earlier work
[9] = target: T3, human KOR; experiment: [35S]GTPγS binding assay, antagonist study: inhibition of U69,593-induced stimulation, CHO-hKOR membranes; assay type: biochemical; design: dose or concentration left out as unconfirmed; details: read-out: inhibition of U69,593-induced stimulation of [35S]GTPγS binding, Inhibition

SMILES | binding at the DOR [1] | binding at the MOR [2] | β-arrestin2 recruitment upon activation of the KOR (in words) [3] | EC50 [3] [nM] | Ki [4] [nM] | EC50 [7] [nM] | other results
CCO[C@@]12Cc3c([nH]c4ccccc34)[C@]3(C)Oc4c(O)ccc5c4[C@@]31CCN(CC1CC1)C2C5 [HS378, reference compound] | significant binding | – | – | – | – | – | –
Cc1cc2n(n1)C1(CCN(C(=O)c3ccc(Cl)cc3)CC1)CC(=O)N2CC1CC1 [SalA-VS-07] | no substantial binding | no substantial binding | failed to induce β-arrestin2 recruitment | > 10000 | 423 ± 97 | 181 ± 49 | inhibition at 10 µM ([4]; compound at 10 μM): > 50%; inhibition [5]: 52 ± 4%; IC50 [6]: 1270 ± 334 nM; Emax ([7]; relative to maximal effect of U69,593 (as 100%)): 48 ± 7%
Cc1cc2n(n1)C1(CCN(C(=O)c3cccc(F)c3)CC1)CC(=O)N2CC1CC1 [SalA-VS-08] | no substantial binding | no substantial binding | failed to induce β-arrestin2 recruitment | > 10000 | 68.5 ± 5.5 | 854 ± 60 | increased affinity at the KOR than SalA-VS-07 [4]: about 6 fold; inhibition at 10 µM [4]: > 50%; lower agonist potency at the KOR compared to SalA-VS-07 [7]: 5 fold; Emax [7]: 108 ± 8%
Cc1cc2n(n1)C1(CCN(C(=O)c3ccncc3)CC1)CC(=O)N2CC1CC1 [SalA-VS-09] | – | – | – | – | – | – | KOR activity (in words) ([4]; binding screen at 10 μM): inactive
COC(=O)[C@@H]1C[C@H](O)C(=O)[C@H]2[C@@]1(C)CC[C@H]1C(=O)O[C@H](c3ccoc3)C[C@]21C [SalB, Salvinorin B] | – | – | – | – | – | – | activity at the KOR (in words) [8]: inactive
Oc1ccc2c3c1O[C@H]1c4[nH]c5c(c4C[C@@]4(O)[C@@H](C2)N(CC2CC2)CC[C@]314)C[C@@]1(O)[C@H]2Cc3ccc(O)c4c3[C@@]1(CCN2CC1CC1)[C@H]5O4 [nor-BNI, nor-binaltorphimine, reference compound] | – | – | – | – | – | – | inhibition [9]: 92 ± 6%
